Results from the kinase profiling compilation of Christmann-Franck et al. (2016).

Experiments:
Test in all cases: KINOMEscan competition binding
Conditions in all cases: compound 2.0 µM
CDK3 (human) = CDK3 (human) (UniProt Q00526)
PIM3 (human) = PIM3 (human) (UniProt Q86V86)
PIK3CG (human) = PIK3CG (human) (UniProt P48736)
[1] = tested on: RET (human), P07949 [V804L]
ACVR1 (human) = ACVR1 (human) (UniProt Q04771)
PLK1 (human) = PLK1 (human) (UniProt P53350)
[2] = tested on: FLT3 (human), P36888 [D835Y]
MLTK (human) = MLTK (human) (UniProt Q9NYL2)
FGFR3 (human) = FGFR3 (human) (UniProt P22607)
TAOK2 (human) = TAOK2 (human) (UniProt Q9UL54)
STK33 (human) = STK33 (human) (UniProt Q9BYT3)
EPHA4 (human) = EPHA4 (human) (UniProt P54764)
PIM1 (human) = PIM1 (human) (UniProt P11309)
PIK3C2G (human) = PIK3C2G (human) (UniProt O75747)
EPHB2 (human) = EPHB2 (human) (UniProt P29323)
PKN3 (M.tuberculosis) = PKN3 (M.tuberculosis) (UniProt Q6P5Z2)
DSTYK (human) = DSTYK (human) (UniProt Q6XUX3)
MAP2K2 (human) = MAP2K2 (human) (UniProt P36507)
CASK (human) = CASK (human) (UniProt O14936)
SLK (human) = SLK (human) (UniProt Q9H2G2)
YES1 (human) = YES1 (human) (UniProt P07947)
HIPK2 (human) = HIPK2 (human) (UniProt Q9H2X6)
EPHB6 (human) = EPHB6 (human) (UniProt O15197)
TAOK3 (human) = TAOK3 (human) (UniProt Q9H2K8)
PRKACB (human) = PRKACB (human) (UniProt P22694)
[3] = tested on: PIK3CA (human), P42336 [E545A]
MAP2K5 (human) = MAP2K5 (human) (UniProt Q13163)
CLK3 (human) = CLK3 (human) (UniProt P49761)
[4] = tested on: PIK3CA (human), P42336 [Q546K]
RPS6KA5 KD1 (human) = RPS6KA5 KD1 (human) (UniProt O75582)
AURKB (human) = AURKB (human) (UniProt Q96GD4)
[5] = target: TYK2 JH1 catalytic (human) (UniProt P29597)
[6] = tested on: KIT (human), P10721 [V559D/T670I]
STK24 (human) = STK24 (human) (UniProt Q9Y6E0)
CDK19 (human) = CDK19 (human) (UniProt Q9BWU1)
[7] = tested on: PIK3CA (human), P42336 [C420R]
CSNK1A1L (human) = CSNK1A1L (human) (UniProt Q8N752)
ACVR1B (human) = ACVR1B (human) (UniProt P36896)
CAMK2B (human) = CAMK2B (human) (UniProt Q13554)
PDPK1 (human) = PDPK1 (human) (UniProt O15530)
[8] = tested on: EGFR (human), P00533 [752-759 del]
[9] = target: JAK1 JH2 pseudokinase (human) (UniProt P23458)

Sequence of PIK3CG (human) (P48736 whole entry, looked up): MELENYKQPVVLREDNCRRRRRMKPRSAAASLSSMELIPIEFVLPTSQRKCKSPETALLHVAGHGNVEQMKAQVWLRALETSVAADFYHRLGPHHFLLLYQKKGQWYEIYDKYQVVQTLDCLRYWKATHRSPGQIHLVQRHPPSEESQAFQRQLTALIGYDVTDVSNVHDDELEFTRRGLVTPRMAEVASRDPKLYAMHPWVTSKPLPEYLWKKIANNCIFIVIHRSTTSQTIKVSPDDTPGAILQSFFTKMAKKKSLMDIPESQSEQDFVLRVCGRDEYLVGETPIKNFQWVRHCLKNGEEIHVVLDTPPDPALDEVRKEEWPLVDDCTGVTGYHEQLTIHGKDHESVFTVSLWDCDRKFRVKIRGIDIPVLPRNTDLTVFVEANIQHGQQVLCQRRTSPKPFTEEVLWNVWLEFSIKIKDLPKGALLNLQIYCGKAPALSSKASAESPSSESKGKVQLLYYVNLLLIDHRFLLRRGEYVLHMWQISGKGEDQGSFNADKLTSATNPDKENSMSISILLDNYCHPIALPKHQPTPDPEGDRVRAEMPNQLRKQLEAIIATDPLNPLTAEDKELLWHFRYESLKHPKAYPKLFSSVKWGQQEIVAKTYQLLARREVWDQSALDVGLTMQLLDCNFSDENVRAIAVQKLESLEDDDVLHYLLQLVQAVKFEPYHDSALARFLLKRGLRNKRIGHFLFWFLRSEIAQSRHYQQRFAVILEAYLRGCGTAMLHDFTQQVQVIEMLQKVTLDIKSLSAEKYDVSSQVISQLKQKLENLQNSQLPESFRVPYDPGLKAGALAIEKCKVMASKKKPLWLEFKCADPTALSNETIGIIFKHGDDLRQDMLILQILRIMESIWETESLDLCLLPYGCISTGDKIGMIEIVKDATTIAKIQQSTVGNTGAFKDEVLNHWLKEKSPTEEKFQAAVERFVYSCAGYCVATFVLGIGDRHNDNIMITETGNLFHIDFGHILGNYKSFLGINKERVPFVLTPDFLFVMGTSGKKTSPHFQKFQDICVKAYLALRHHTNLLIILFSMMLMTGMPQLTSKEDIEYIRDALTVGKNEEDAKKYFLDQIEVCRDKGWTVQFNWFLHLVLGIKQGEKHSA
Sequence of RPS6KA5 KD1 (human) (O75582 whole entry, looked up): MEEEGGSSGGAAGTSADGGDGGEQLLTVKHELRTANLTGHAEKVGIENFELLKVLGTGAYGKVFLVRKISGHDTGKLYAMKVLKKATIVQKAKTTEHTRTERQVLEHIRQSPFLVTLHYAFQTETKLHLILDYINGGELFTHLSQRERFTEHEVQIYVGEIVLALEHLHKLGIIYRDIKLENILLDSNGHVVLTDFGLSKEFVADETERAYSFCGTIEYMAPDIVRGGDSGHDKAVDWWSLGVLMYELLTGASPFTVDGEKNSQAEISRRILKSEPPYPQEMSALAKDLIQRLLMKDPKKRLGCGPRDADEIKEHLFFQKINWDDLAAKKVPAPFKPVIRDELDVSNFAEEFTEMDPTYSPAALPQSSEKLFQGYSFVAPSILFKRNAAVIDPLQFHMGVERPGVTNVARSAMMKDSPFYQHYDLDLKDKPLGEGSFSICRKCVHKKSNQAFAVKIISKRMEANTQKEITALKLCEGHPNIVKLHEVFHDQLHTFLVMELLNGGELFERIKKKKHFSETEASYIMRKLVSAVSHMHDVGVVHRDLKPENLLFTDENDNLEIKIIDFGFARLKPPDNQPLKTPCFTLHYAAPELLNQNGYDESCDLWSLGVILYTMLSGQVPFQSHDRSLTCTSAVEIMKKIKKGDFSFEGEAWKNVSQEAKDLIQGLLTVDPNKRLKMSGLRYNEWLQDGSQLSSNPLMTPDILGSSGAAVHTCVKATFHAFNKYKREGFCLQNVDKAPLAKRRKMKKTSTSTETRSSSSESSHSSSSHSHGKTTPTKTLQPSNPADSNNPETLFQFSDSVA
Sequence of TYK2 JH1 catalytic (human) (P29597 whole entry, looked up): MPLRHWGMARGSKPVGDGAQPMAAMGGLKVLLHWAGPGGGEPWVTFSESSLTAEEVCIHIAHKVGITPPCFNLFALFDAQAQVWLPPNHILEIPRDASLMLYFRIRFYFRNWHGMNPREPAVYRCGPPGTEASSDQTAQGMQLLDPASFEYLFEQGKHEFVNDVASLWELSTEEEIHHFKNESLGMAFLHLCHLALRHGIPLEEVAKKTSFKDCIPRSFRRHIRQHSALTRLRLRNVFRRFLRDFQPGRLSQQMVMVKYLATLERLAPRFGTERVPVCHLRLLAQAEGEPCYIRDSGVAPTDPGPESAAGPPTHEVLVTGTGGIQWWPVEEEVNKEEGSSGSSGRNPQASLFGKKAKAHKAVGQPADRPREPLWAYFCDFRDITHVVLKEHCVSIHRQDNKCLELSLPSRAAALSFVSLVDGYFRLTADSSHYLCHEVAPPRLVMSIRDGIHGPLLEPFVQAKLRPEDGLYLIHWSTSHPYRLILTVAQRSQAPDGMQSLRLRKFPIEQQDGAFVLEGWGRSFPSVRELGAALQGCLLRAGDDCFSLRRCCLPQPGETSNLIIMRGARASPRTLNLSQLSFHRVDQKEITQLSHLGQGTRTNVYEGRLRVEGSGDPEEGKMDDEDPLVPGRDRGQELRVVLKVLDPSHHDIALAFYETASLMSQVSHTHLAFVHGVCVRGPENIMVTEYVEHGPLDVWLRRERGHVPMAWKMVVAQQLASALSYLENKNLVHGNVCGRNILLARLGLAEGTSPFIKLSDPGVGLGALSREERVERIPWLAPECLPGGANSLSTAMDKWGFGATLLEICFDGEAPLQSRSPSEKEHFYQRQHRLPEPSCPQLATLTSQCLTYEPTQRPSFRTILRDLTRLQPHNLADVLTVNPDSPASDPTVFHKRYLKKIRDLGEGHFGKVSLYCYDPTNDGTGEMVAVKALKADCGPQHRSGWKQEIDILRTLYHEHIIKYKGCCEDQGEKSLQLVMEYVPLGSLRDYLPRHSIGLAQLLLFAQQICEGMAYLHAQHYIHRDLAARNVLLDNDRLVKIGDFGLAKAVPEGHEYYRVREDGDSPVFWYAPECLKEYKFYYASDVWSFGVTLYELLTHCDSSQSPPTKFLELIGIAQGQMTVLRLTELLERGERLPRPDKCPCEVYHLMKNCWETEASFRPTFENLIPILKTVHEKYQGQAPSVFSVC
Sequence of MLTK (human) (Q9NYL2 whole entry, looked up): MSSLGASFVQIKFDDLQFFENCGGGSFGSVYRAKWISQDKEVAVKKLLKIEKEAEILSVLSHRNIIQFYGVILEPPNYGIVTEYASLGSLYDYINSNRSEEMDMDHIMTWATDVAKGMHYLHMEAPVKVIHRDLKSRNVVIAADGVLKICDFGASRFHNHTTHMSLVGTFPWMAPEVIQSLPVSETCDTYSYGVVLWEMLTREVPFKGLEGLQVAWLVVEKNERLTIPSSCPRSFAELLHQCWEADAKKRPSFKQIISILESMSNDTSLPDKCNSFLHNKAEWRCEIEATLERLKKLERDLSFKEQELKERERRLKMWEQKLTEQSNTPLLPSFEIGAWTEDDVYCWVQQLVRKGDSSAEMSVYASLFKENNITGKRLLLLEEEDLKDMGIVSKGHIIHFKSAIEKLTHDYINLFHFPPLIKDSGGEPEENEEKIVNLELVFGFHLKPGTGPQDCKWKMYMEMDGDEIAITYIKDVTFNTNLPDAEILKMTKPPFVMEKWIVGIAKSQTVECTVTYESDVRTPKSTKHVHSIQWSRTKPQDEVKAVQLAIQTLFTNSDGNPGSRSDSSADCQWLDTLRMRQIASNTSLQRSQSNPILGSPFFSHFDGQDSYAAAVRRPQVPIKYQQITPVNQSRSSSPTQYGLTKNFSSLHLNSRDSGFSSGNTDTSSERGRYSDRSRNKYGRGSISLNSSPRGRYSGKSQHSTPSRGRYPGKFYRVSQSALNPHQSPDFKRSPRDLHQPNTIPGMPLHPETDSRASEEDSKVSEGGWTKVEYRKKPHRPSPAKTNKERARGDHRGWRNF
Sequence of HIPK2 (human) (Q9H2X6 whole entry, looked up): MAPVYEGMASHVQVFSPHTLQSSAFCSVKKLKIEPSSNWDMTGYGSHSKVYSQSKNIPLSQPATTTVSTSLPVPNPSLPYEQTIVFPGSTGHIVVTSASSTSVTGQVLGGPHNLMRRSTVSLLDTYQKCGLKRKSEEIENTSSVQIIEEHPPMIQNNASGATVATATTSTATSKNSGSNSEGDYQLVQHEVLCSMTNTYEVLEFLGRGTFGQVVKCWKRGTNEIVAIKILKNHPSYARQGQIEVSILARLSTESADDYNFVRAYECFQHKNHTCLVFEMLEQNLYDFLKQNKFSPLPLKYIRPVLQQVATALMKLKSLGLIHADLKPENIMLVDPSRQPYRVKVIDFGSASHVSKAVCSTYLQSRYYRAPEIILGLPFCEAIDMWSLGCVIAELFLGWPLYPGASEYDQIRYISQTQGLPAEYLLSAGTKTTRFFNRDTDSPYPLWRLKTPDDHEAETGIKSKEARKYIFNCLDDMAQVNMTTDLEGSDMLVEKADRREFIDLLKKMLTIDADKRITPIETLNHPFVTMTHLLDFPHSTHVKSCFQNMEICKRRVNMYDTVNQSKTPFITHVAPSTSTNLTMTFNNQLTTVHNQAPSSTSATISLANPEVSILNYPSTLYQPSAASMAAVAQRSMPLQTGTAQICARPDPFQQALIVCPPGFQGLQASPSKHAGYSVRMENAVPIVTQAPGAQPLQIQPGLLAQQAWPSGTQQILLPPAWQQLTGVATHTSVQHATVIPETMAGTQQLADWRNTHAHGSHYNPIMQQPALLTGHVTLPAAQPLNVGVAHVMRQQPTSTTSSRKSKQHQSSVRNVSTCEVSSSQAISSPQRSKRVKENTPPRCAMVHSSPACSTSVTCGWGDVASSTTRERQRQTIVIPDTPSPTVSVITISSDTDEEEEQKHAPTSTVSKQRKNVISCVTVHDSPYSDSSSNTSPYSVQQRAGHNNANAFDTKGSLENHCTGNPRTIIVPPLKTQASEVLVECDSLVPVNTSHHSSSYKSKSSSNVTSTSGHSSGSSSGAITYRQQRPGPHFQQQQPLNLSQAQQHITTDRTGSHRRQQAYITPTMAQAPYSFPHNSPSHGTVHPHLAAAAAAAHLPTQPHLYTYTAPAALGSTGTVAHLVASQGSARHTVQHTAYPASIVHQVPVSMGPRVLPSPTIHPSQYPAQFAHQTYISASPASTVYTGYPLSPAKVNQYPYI

Question: For N#Cc1ccc2ncnc(NCCc3ccc4ccccc4c3)c2c1, which kinase still bound, per cent of control (CDK3 (human)) is on record?
Answer: 100%

Question: What about the kinase still bound, per cent of control (PIM3 (human)) of the same molecule?
Answer: 100%

Question: What about the kinase still bound, per cent of control (PIK3CG (human)) of the same molecule?
Answer: 68%

Question: What about the kinase still bound, per cent of control [1] of the same molecule?
Answer: 92%

Question: What about the kinase still bound, per cent of control (ACVR1 (human)) of the same molecule?
Answer: 100%

Question: What about the kinase still bound, per cent of control (PLK1 (human)) of the same molecule?
Answer: 88%

Question: And the kinase still bound, per cent of control [2]?
Answer: 94%

Question: And the kinase still bound, per cent of control (MLTK (human))?
Answer: 100%

Question: What about the kinase still bound, per cent of control (FGFR3 (human)) of the same molecule?
Answer: 100%

Question: What about the kinase still bound, per cent of control (TAOK2 (human)) of the same molecule?
Answer: 83%

Question: What about the kinase still bound, per cent of control (STK33 (human)) of the same molecule?
Answer: 96%

Question: And the kinase still bound, per cent of control (EPHA4 (human))?
Answer: 100%

Question: And the kinase still bound, per cent of control (PIM1 (human))?
Answer: 95%

Question: What about the kinase still bound, per cent of control (PIK3C2G (human)) of the same molecule?
Answer: 100%

Question: And the kinase still bound, per cent of control (EPHB2 (human))?
Answer: 99%

Question: And the kinase still bound, per cent of control (PKN3 (M.tuberculosis))?
Answer: 100%

Question: And the kinase still bound, per cent of control (DSTYK (human))?
Answer: 61%

Question: And the kinase still bound, per cent of control (MAP2K2 (human))?
Answer: 80%

Question: And the kinase still bound, per cent of control (CASK (human))?
Answer: 100%

Question: What about the kinase still bound, per cent of control (SLK (human)) of the same molecule?
Answer: 73%

Question: What about the kinase still bound, per cent of control (YES1 (human)) of the same molecule?
Answer: 86%

Question: What about the kinase still bound, per cent of control (HIPK2 (human)) of the same molecule?
Answer: 87%

Question: And the kinase still bound, per cent of control (EPHB6 (human))?
Answer: 100%

Question: And the kinase still bound, per cent of control (TAOK3 (human))?
Answer: 79%

Question: And the kinase still bound, per cent of control (PRKACB (human))?
Answer: 100%

Question: What about the kinase still bound, per cent of control [3] of the same molecule?
Answer: 92%

Question: And the kinase still bound, per cent of control (MAP2K5 (human))?
Answer: 85%

Question: And the kinase still bound, per cent of control (CLK3 (human))?
Answer: 93%

Question: What about the kinase still bound, per cent of control [4] of the same molecule?
Answer: 85%

Question: What about the kinase still bound, per cent of control (RPS6KA5 KD1 (human)) of the same molecule?
Answer: 100%

Question: And the kinase still bound, per cent of control (AURKB (human))?
Answer: 79%

Question: What about the kinase still bound, per cent of control [5] of the same molecule?
Answer: 93%

Question: And the kinase still bound, per cent of control [6]?
Answer: 86%

Question: And the kinase still bound, per cent of control (STK24 (human))?
Answer: 92%

Question: What about the kinase still bound, per cent of control (CDK19 (human)) of the same molecule?
Answer: 0.8%

Question: And the kinase still bound, per cent of control [7]?
Answer: 100%

Question: What about the kinase still bound, per cent of control (CSNK1A1L (human)) of the same molecule?
Answer: 89%

Question: What about the kinase still bound, per cent of control (ACVR1B (human)) of the same molecule?
Answer: 100%

Question: What about the kinase still bound, per cent of control (CAMK2B (human)) of the same molecule?
Answer: 88%

Question: What about the kinase still bound, per cent of control (PDPK1 (human)) of the same molecule?
Answer: 100%

Question: What about the kinase still bound, per cent of control [8] of the same molecule?
Answer: 80%

Question: What about the kinase still bound, per cent of control [9] of the same molecule?
Answer: 100%
